Test results as given in ChEMBL document CHEMBL4888484, “Replenishing the malaria drug discovery pipeline: Screening and hit evaluation of the MMV Hit Generation Library 1 (HGL1) against asexual blood stage Plasmodium falciparum ,using a nano luciferase reporter read-out” (2022).
pIC50: −log10 of the molar value.

Legend:
[1] = system: Plasmodium falciparum; assay: Hit confirmation in dose-response curve in NF54 nanoGlo assay, at 72h; assay type: functional, organism-based, Erythrocyte; design: timepoint 72 hour; details: Plasmodium falciparum, NF54, Erythrocyte, 72 h
[2] = system: Plasmodium falciparum; assay: Hit confirmation in dose-response curve in NF54 pLDH assay, at 72h; assay type: functional, organism-based; design: timepoint 72 hour; details: NF54, Erythrocyte
[3] = system: Plasmodium falciparum; assay: Hit confirmation in dose-response curve in Dd2 pLDH assay, at 72h; assay type: functional, organism-based; design: timepoint 72 hour; details: Dd2, Erythrocyte
[4] = system: Plasmodium falciparum; assay: Hit confirmation in dose-response curve in NF54 nanoGlo assay, at 12h; assay type: functional, organism-based, Erythrocyte; design: timepoint 12 hour; details: Plasmodium falciparum, NF54, Erythrocyte, 12 h
[5] = Hit confirmation in dose-response curve in HepG2 cytotoxicity assay, at 72h; assay type: toxicity, cell-based; design: timepoint 72 hour; details: human, HepG2 cells

SMILES | pIC50 [1] | pIC50 [2] | pIC50 [3] | pIC50 [4] | IC50 at 72 h [5]
COc1ccc(-c2cc3nc(C)cc(N4CCN(C/C=C/c5ccccc5)CC4)n3n2)cc1OC | 5.65 | 5.13 | 5.25 | 5.31 | > 10 µM
CCn1cc(-c2nc(-c3ccccc3C)no2)c(=O)c2cc(F)c(N3CCOCC3)cc21 | 5.45 | 5.15 | 5.31 | < 5.00 | > 10 µM
CCOc1cc(C(=O)Nc2ccc3nc4c(c(Nc5ccc(OC)c(OC)c5)c3c2)CCCC4)cc(OCC)c1OCC | 5.86 | 5.50 | 5.75 | 5.61 | > 10 µM
COc1cc([C@H](CC(=O)NC2CCN(Cc3ccccc3)CC2)N2Cc3ccccc3C2=O)cc(OC)c1OC | 5.62 | 5.56 | 5.43 | 5.24 | > 10 µM
c1ccc(C(c2ccccc2)N2CCN(c3nn4cnnc4c4ccccc34)CC2)cc1 | 5.76 | 5.49 | 5.55 | 5.57 | > 10 µM
CC(=O)Nc1c(-c2ccc(C)cc2)c(C)nn1-c1ccc(C(=O)Nc2cc(C)ccn2)cc1 | 5.56 | 5.02 | 5.13 | < 5.00 | > 10 µM
CCN(C(=O)Cn1cc(-c2ccccc2)c2ncn(CC)c(=O)c21)c1ccccc1 | 6.12 | < 5.00 | < 5.00 | 6.44 | > 10 µM
COc1ccc(CC(=O)NCCn2c(C(F)(F)F)nc3ccccc32)cc1 | 5.59 | < 5.00 | < 5.00 | 5.79 | > 10 µM
Cc1nn(-c2nc3ccccc3[nH]2)c2c1[C@@H](c1cccnc1)CC(=O)N2 | 5.81 | 5.19 | < 5.00 | 5.66 | > 10 µM
COc1ccc(CNc2nc(-c3nnc(-c4ccccc4)o3)nc3ccccc23)cc1 | 5.52 | < 5.00 | < 5.00 | 6.11 | > 10 µM
COc1ccc(-c2c(C)nn3c(N4CCC(C(=O)NC5CC5)CC4)cc(C)nc23)cc1OC | 5.57 | < 5.00 | < 5.00 | 5.71 | > 10 µM
COc1ccc2c(c1)OC13CCN(C)CC1C2C(C(=O)c1ccccc1OC)C(=O)N3 (stereo not given) | 5.70 | < 5.00 | < 5.00 | 5.98 | > 10 µM
O=c1c2ccccc2nc2cc(-c3ccc(O)cc3)c(-c3ccccc3)nn12 | 5.67 | < 5.00 | < 5.00 | 5.44 | > 10 µM
Cn1c(=O)c2c(-c3ccc(Cl)cc3)n(-c3cccc4cccc(N)c34)cc2n(C)c1=O | < 5.00 | 7.74 | < 5.00 | < 5.00 | > 10 µM
COc1ccc(-c2cc3ncc(C(=O)c4cc(Cl)ccc4O)cn3n2)cc1 | 5.64 | 5.41 | 5.44 | 5.14 | > 10 µM
CC1CCN(c2nccnc2Oc2ccc(C(=O)NCc3ccccc3Cl)cc2)CC1 | 5.61 | 5.02 | 5.18 | < 5.00 | > 10 µM
Cc1ccc2c(c1)c1c(n2S(=O)(=O)c2ccc(C(C)(C)C)cc2)CCCN(C)C1 | 5.83 | 5.64 | 5.87 | < 5.00 | > 10 µM
CCNc1nc(C)cc(Nc2ccc(NC(=O)c3cc(C)ccc3C)cc2)n1 | 6.49 | 6.11 | 6.20 | 6.34 | > 10 µM
Cc1oc(-c2ccc(C(=O)N3CCN(c4ccccc4)CC3)cc2)nc1CN1CCC(C)CC1 | 5.67 | 5.47 | < 5.00 | 5.63 | > 10 µM
Cc1ccc(C2=C[C@@H](c3ccc(Cl)cc3)n3nc(NC(=O)c4ccccc4)nc3N2)cc1 | 5.76 | 5.46 | 5.58 | 5.67 | > 10 µM
CCN(CC)c1ccc(C(=O)Nc2ccc3nc(N4CCCC4)cc(C)c3c2)cc1 | 5.70 | 5.44 | 5.44 | 5.37 | > 10 µM
COc1ccc(C(=O)N(C(=O)c2ccc(OC)cc2)c2c3c(nc4ccccc24)CCCC3)cc1 | 5.64 | 5.31 | 5.41 | 5.49 | > 10 µM
CCCN(CCC)CCN1C(=O)[C@@H]2C(C(=O)Nc3cc(Cl)cc(Cl)c3)[C@@H]3C=C[C@]2(O3)C1C(=O)NC1CCCCC1 (stereo not given in full) | 5.60 | 5.43 | 5.52 | < 5.00 | > 10 µM
COc1ccc(CCNC(=O)c2cnn3c4c(cnc23)C[C@@H](C)CC4)cc1OC | 5.52 | < 5.00 | < 5.00 | 5.90 | > 10 µM

SMILES | pIC50 [1] | pIC50 [2] | pIC50 [3] | pIC50 [4] | IC50 at 72 h [5]
CCOc1ccc(-c2cc(NC(=O)c3cc(-c4cccnc4)nc4ccccc34)on2)cc1OCC | 5.72 | < 5.00 | 5.31 | 5.57 | > 10 µM
CCOc1ccc(NC(=O)c2cn3nc(-c4ccc(OCC)cc4)cc3nc2C2CCN(C(=O)OC(C)(C)C)CC2)cc1 | < 5.00 | < 5.00 | 5.11 | < 5.00 | > 10 µM
CCNc1nc(C)cc(Nc2ccc(NS(=O)(=O)c3c(C)noc3C)cc2)n1 | 5.57 | 5.46 | 5.60 | 5.30 | > 10 µM
COc1ccc(-c2cc3n(n2)C[C@@](C)(C(=O)NCc2ccccc2)N(Cc2ccc4c(c2)OCO4)C3=O)cc1 | 5.61 | < 5.00 | 5.02 | 5.31 | > 10 µM
COC(=O)c1ccccc1NC(=O)NCCn1nnc2cc(S(=O)(=O)N(C)C)ccc21 | 5.59 | < 5.00 | < 5.00 | < 5.00 | > 10 µM
Oc1ccc2ncccc2c1[C@@H](Nc1ccccn1)c1cccc(Br)c1 | 5.80 | 5.29 | 5.56 | 5.51 | > 10 µM
CCc1ccc(-c2cc3n(n2)C[C@@](C)(C(=O)NC2CCCCC2)N(c2cc(C)cc(C)c2)C3=O)cc1 | 5.64 | 5.00 | 5.12 | 5.24 | > 10 µM
Cc1cc2nc(C)c(=O)n(Cc3ccc(C(=O)NCCN4CCCC[C@@H]4C)cc3)c2cc1C | 5.38 | 5.26 | 5.16 | < 5.00 | > 10 µM
CC(=O)Nc1ccc(C)cc1S(=O)(=O)N1CC=C(c2c(C)n(Cc3ccccc3C)c3ccccc23)CC1 | 5.77 | 5.35 | 5.46 | 5.73 | > 10 µM
Cc1ccc(-c2cc(C(=O)Nc3nnc(C(C)C)s3)no2)cc1F | 5.42 | < 5.00 | < 5.00 | 5.72 | > 10 µM
C[C@@]1(C(=O)NCc2ccccc2)Cn2nc(-c3ccccc3)cc2C(=O)N1c1ccc2c(c1)OCCO2 | 5.65 | 5.01 | 5.13 | 5.46 | > 10 µM
c1ccc(-c2noc(-c3ccc(NC4CCCCC4)nn3)n2)cc1 | 5.51 | 5.10 | 5.14 | < 5.00 | > 10 µM
Cc1cccc(-c2nc(C[N+]3(Cc4nc(-c5cccc(C)c5)oc4C)CCCC3)c(C)o2)c1 | 5.55 | 5.32 | 5.47 | < 5.00 | > 10 µM
COc1ccc(-c2cc3n(n2)C[C@@](C)(C(=O)NCc2ccccc2OC)N(c2cccc(OC)c2)C3=O)cc1 | 5.52 | < 5.00 | < 5.00 | 5.32 | > 10 µM
CCOC(=O)C1CCC(CN(Cc2ccc(OC)cc2)S(=O)(=O)c2cc(C(=O)Nc3ccc(OCC)cc3)ccc2F)CC1 (stereo not given) | 5.30 | < 5.00 | < 5.00 | 5.10 | > 10 µM
CC(C)N1CCC2(CC1)N=C(c1ccc3c(c1)OCO3)C[C@@H](c1cc(Cl)ccc1O)N2 | 5.42 | < 5.00 | 5.08 | 5.37 | > 10 µM
CCc1cccc(NC(=O)Cn2ccc3ccc(-c4nnc(C)o4)cc32)c1 | 5.74 | 5.57 | 5.62 | 5.58 | > 10 µM
Cc1ccc(N(Cc2cccs2)C(=O)c2cccs2)cc1Cl | 5.47 | 5.03 | 5.33 | 5.24 | > 10 µM
Cc1cc(C)cc(-c2cc3nc(C)cc(N4CCC(C(=O)NCc5cccc(F)c5)CC4)n3n2)c1 | 5.83 | 5.61 | 5.69 | 5.36 | > 10 µM
CCc1ccc(C2=C[C@@H](c3cccc(OC)c3)n3ncc(C(=O)Nc4ccc(C)cc4)c3N2)cc1 | 5.58 | 5.06 | 5.42 | 5.42 | > 10 µM
Cc1ccc([C@H](c2c[nH]c3ccccc23)N(C)C(=O)C(C)C)cc1 | 5.56 | < 5.00 | < 5.00 | 5.82 | > 10 µM
COc1ccc(CNCc2ccc(C)cc2)cc1Cn1ccnc1 | 5.73 | 5.57 | 5.85 | 5.54 | > 10 µM
CCn1cc(-c2nc(-c3ccccc3C)no2)c(=O)c2cc(F)c(N3CCCCC3)cc21 | 5.22 | 4.96 | 4.99 | < 5.00 | > 10 µM
